Measurements: patent US20250059217A1, “HETEROCYCLIC COMPOUNDS AND METHODS OF PREPARATION THEREOF” (priority 2021, published 2025)

Columns and labels:
[1] = molecular target: T1, 5-HT2A receptor (Homo sapiens, UniProt P28223); assay: Serotonin receptor 5-HT2 functional assay (Gq dissociation BRET or Gq-dependent calcium flux), 5-HT2A; format: cell-based; conditions: Table 5, 5-HT2A receptor, compared with psilocin
T1 construct: expressed in transfected cells; host or cells: HEK293T

[2] = molecular target: T2, 5-HT2B receptor (Homo sapiens, UniProt P41595); assay: Serotonin receptor 5-HT2 functional assay (Gq dissociation BRET or Gq-dependent calcium flux), 5-HT2B; format: cell-based; conditions: Table 5, 5-HT2B receptor, compared with psilocin
T2 construct: expressed in transfected cells; host or cells: HEK293T

[3] = molecular target: 5-HT6 receptor (Homo sapiens, UniProt P50406); assay: Functional activity at other receptor sites relative to psilocin (Table 5), 5-HT6; conditions: for 5-HT6 Eff %: Table 5, 5-HT6 receptor, compared with psilocin
[4] = molecular target: T3, 5-HT1F receptor (Homo sapiens, UniProt P30939); assay: Functional activity at other receptor sites relative to psilocin (Table 5), 5-HT1F; conditions: for 5-HT1F Eff %: Table 5, 5-HT1F receptor, compared with psilocin
T3 sequence (P30939 1-366): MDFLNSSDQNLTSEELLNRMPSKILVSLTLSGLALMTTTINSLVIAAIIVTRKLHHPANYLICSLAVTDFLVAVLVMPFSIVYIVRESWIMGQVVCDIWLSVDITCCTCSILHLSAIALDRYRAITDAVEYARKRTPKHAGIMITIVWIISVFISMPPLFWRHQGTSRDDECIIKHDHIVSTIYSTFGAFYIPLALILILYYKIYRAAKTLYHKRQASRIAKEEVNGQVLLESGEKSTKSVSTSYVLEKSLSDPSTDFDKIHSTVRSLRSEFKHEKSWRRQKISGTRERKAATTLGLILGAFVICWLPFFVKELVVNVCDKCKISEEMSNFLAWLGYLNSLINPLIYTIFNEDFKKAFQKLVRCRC

[5] = molecular target: other receptor sites (Homo sapiens, UniProt P34969); assay: Functional activity at other receptor sites relative to psilocin (Table 5), further receptors; conditions: read-out: 5-HT7 EC50, 5-HT7 receptor, compared with psilocin
[6] = molecular target: other receptor sites (Homo sapiens, UniProt Q13639); assay: as above; conditions: read-out: 5-HT4 EC50, 5-HT4 receptor, compared with psilocin
[7] = test system: other receptor sites; assay: as above; conditions: compared with psilocin; for 5-HT1A Eff %: 5-HT1A receptor; for 5-HT1B Eff %: 5-HT1B receptor; for 5-HT1D Eff %: 5-HT1D receptor; for 5-HT1E Eff %: 5-HT1E receptor; for 5-HT4 Eff %: 5-HT4 receptor; for 5-HT5A Eff %: 5-HT5A receptor; for 5-HT7 Eff %: 5-HT7 receptor
[8] = molecular target: T4, 5-HT2C receptor (Homo sapiens, UniProt P28335); assay: cell-based; conditions: Table 5, 5-HT2C receptor, compared with psilocin
T4 construct: expressed in transfected cells; host or cells: HEK293T
T4 sequence (P28335 33-458): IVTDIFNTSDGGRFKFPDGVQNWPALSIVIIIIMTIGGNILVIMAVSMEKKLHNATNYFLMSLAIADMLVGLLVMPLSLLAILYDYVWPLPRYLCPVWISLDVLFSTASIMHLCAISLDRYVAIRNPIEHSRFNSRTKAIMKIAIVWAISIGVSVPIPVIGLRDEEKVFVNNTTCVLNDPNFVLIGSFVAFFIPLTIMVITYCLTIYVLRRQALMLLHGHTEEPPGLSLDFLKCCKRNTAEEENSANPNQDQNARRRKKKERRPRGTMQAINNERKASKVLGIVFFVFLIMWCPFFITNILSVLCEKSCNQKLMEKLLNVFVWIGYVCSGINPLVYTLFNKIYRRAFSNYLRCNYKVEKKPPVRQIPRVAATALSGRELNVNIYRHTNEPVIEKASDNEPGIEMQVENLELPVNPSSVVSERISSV

[9] = molecular target: T5, other receptor sites (Homo sapiens, UniProt P08908); assay: Functional activity at other receptor sites relative to psilocin (Table 5), further receptors; conditions: read-out: 5-HT1A EC50, 5-HT1A receptor, compared with psilocin
T5 sequence (P08908 1-422): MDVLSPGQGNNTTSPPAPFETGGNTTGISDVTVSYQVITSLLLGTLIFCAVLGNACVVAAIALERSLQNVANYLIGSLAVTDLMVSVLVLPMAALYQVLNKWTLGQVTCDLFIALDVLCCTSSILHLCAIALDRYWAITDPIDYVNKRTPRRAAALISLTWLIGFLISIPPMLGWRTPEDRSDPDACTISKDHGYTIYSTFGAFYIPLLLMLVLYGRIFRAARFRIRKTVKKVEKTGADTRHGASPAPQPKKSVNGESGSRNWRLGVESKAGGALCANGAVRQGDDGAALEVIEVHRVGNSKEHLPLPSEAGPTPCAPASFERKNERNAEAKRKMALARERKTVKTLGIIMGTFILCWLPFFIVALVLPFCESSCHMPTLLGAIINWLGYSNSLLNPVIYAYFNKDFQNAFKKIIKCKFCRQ

[10] = molecular target: other receptor sites (Homo sapiens, UniProt P28221); assay: as above; conditions: read-out: 5-HT1D EC50, 5-HT1D receptor, compared with psilocin
[11] = molecular target: other receptor sites (Homo sapiens, UniProt P28222); assay: as above; conditions: read-out: 5-HT1B EC50, 5-HT1B receptor, compared with psilocin
[12] = molecular target: other receptor sites (Homo sapiens, UniProt P28566); assay: as above; conditions: read-out: 5-HT1E EC50, 5-HT1E receptor, compared with psilocin
[13] = molecular target: other receptor sites (Homo sapiens, UniProt P47898); assay: as above; conditions: read-out: 5-HT5A EC50, 5-HT5A receptor, compared with psilocin
Chain of other receptor sites (Homo sapiens, UniProt P47898) (P47898 whole entry): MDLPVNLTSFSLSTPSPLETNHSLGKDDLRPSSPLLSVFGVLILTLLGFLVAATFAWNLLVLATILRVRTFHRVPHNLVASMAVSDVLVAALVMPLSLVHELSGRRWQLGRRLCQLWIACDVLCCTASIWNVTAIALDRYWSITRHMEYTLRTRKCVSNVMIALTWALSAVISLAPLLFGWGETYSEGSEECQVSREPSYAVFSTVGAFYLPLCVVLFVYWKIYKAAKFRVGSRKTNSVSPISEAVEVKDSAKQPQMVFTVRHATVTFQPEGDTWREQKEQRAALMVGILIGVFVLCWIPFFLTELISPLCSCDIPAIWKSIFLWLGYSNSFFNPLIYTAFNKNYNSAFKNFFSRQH

T1 sequence (P28223 whole entry): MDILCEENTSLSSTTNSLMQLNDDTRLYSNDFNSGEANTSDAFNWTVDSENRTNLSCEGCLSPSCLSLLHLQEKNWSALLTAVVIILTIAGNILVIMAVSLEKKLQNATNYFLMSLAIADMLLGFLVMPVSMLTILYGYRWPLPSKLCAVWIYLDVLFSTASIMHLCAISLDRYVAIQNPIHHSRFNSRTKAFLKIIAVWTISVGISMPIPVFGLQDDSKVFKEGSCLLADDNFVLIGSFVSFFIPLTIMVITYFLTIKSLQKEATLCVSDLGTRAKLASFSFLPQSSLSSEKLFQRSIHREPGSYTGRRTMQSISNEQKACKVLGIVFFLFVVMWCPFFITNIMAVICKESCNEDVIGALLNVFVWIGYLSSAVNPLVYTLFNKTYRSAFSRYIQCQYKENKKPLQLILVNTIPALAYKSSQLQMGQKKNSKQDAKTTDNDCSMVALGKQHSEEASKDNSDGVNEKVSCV
T2 sequence (P41595 whole entry): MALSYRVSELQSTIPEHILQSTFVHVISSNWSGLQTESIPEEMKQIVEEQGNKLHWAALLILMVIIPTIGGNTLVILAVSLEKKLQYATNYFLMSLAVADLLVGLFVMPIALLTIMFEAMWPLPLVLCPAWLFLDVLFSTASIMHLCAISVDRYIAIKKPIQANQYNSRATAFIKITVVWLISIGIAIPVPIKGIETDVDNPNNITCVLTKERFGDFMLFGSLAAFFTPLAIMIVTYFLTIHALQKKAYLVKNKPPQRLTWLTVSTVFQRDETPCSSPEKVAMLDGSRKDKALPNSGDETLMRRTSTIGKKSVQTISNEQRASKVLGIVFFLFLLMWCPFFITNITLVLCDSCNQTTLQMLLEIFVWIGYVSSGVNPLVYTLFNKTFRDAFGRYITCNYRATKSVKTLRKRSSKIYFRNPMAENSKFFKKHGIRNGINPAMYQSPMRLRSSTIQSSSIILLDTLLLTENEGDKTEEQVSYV
Chain of 5-HT6 receptor (P50406 whole entry): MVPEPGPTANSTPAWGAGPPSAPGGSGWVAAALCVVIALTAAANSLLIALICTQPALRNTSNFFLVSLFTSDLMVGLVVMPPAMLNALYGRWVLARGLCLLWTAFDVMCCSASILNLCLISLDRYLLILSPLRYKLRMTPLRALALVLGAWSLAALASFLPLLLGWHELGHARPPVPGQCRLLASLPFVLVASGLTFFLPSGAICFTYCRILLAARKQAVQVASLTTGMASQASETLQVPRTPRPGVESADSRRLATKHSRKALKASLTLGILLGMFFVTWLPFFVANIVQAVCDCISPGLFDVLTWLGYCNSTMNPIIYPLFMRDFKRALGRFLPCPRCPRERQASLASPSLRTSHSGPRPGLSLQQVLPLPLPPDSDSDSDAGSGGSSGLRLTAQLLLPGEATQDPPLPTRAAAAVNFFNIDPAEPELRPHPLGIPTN
Chain of other receptor sites (Homo sapiens, UniProt Q13639) (Q13639 whole entry): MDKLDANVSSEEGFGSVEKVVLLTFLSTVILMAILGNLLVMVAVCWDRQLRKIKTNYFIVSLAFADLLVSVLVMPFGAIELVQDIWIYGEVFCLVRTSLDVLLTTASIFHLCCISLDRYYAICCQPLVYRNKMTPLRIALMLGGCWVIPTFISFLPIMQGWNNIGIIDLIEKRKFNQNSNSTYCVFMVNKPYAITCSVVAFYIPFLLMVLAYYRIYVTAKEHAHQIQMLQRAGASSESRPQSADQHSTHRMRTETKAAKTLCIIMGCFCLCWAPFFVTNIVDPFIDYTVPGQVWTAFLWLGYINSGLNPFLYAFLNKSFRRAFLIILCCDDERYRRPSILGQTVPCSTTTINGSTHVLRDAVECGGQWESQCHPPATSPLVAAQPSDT
Chain of other receptor sites (Homo sapiens, UniProt P34969) (P34969 whole entry): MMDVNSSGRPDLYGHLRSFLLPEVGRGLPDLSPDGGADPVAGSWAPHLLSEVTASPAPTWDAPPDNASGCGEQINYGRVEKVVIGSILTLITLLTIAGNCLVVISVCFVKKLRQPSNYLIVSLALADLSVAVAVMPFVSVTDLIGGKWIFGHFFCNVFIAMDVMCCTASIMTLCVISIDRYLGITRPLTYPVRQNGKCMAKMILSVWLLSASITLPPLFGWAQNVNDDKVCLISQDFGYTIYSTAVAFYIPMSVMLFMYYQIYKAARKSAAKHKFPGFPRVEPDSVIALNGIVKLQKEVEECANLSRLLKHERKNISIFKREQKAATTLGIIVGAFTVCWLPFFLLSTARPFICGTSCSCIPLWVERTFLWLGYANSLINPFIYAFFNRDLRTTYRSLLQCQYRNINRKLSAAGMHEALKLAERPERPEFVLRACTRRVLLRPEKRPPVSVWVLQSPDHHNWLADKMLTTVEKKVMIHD
Chain of other receptor sites (Homo sapiens, UniProt P28566) (P28566 whole entry): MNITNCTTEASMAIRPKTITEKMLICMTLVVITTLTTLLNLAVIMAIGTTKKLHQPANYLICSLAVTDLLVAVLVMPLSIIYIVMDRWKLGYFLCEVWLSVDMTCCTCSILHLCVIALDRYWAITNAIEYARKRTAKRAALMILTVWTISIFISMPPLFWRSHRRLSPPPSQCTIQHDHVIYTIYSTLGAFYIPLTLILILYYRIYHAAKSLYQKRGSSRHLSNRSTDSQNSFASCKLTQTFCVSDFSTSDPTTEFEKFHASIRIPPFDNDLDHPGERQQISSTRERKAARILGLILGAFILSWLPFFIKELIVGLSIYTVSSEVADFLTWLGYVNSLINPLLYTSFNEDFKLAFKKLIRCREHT
Chain of other receptor sites (Homo sapiens, UniProt P28222) (P28222 whole entry): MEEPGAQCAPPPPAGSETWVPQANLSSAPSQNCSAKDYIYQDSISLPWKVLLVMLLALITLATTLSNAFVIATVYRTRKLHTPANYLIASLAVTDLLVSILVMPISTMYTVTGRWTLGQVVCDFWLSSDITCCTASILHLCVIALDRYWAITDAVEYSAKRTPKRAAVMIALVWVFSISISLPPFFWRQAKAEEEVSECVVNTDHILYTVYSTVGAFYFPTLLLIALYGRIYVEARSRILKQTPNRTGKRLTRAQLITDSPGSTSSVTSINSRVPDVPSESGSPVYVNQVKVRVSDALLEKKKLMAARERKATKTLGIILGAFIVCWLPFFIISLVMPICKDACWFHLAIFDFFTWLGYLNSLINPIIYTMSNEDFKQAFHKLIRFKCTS
Chain of other receptor sites (Homo sapiens, UniProt P28221) (P28221 whole entry): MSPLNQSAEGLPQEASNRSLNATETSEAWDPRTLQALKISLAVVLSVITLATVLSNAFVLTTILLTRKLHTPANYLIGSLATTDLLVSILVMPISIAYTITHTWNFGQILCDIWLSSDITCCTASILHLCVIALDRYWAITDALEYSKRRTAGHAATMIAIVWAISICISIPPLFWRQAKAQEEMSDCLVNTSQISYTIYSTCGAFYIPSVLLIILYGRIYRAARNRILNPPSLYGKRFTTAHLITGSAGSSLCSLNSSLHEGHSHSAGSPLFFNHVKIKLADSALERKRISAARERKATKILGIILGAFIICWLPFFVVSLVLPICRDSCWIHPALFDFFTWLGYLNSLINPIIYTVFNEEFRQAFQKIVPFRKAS

SMILES | 5-HT2A Eff % [1] [%] | 5-HT2B Eff % [2] [%] | EC50 [3] [nM] | 5-HT6 Eff % [3] [%] | EC50 [4] [nM] | 5-HT1F Eff % [4] [%] | EC50 [5] [nM] | EC50 [6] [nM] | 5-HT1A Eff % [7] [%] | 5-HT1B Eff % [7] [%] | 5-HT1D Eff % [7] [%] | 5-HT1E Eff % [7] [%] | 5-HT4 Eff % [7] [%] | 5-HT5A Eff % [7] [%] | 5-HT7 Eff % [7] [%] | also measured
CN(C)CCc1c[nH]c2cccc(O)c12 [drawing 39] | 82 | 63 | 183 | 74 | 9.3 | 93 | 525 | 563 | 93 | 94 | 102 | 90 | 81 | 48 | 86 | 
Cc1ccc(O)c2c(CCN(C)C)c[nH]c12 [drawing 38] | 73 | 16 | 9 | 48 | 23 | 92 | 5.2 | 257 | 76 | 105 | 112 | 102 | 13 | 20 | 3.4 | EC50 ([1]; read-out: 5-HT2A EC50): 66 nM; EC50 ([2]; 5-HT2B EC50 (nM)): 3.6 nM; 5-HT2C Eff % [8]: 79%; EC50 ([8]; read-out: 5-HT2C EC50): 6.9 nM; EC50 [9]: 12600 nM; EC50 [10]: 749 nM; EC50 [11]: 309 nM; EC50 [12]: 167 nM; EC50 [13]: 23000 nM
